Test [1] deals with T1, Mannose-6-phosphate isomerase (Homo sapiens, UniProt P34949).
T1 sequence (P34949 whole entry): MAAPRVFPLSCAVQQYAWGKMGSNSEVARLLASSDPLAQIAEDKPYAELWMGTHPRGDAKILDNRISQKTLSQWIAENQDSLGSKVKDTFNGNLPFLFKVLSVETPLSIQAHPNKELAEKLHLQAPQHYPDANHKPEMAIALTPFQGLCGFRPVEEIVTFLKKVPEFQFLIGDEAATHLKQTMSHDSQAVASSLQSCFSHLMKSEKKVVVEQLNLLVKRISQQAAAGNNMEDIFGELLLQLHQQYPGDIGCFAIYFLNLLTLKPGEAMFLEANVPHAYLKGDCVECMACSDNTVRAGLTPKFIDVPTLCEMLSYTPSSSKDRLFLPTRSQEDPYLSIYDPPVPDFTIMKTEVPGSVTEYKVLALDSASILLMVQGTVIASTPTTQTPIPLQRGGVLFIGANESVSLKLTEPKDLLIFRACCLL
Put plainly: PMI enzyme inhibitors, confirmation, biochemical, fluorescence intensity (AID 1535).

Test [2] deals with Phosphomannomutase 2 (Homo sapiens, UniProt O15305). Put plainly: Counter screen SAR assay for PMM2 inhibitors via a fluorescence intensity assay. [Related pubchem assays (depositor defined):AID1545, AID1574].
Test [3] deals with T2, Alkaline phosphatase, tissue-nonspecific isozyme (Homo sapiens, UniProt P05186).
T2 sequence (P05186 whole entry): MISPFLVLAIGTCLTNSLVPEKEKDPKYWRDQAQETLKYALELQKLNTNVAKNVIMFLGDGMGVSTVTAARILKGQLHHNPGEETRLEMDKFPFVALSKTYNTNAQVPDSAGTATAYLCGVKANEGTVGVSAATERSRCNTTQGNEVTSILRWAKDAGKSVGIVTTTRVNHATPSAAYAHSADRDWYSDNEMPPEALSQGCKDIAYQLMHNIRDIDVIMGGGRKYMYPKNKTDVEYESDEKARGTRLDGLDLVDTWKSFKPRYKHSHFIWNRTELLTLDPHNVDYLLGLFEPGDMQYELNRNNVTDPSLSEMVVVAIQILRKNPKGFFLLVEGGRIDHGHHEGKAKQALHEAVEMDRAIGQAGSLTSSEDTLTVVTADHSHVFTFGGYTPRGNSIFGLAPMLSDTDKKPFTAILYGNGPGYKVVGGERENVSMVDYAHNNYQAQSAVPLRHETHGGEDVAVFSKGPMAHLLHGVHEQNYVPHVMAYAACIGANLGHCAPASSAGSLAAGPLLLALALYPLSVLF
Put plainly: TNAP enzyme inhibition by screening hits, dose response, selectivity assay for mouse IAP inhibitor project, biochemical, human TNAP, uHTS hits (AID 488906). In kind it is functional.

The target in test [4] is Intestinal-type alkaline phosphatase (Mus musculus, UniProt P24822). Put plainly: PubChem AID 488785. In kind it is functional.
Test [5] concerns the target Intestinal-type alkaline phosphatase (Homo sapiens, UniProt P09923). As to the kind of experiment: activation of human intestinal alkaline phosphatase – biochemical, dose response (AID 488873). In kind it is functional.
The target in test [6] is Albumin (Bos taurus, UniProt P02769). Put plainly: Counterscreen for inhibitors of T-cell receptor (TCR)-CD3 interaction: Fluorescence-based biochemical high throughput dose response assay to identify inhibitors of T-cell receptor (TCR)-CD3 interaction using a TAMRA-labeled BSA probe. In kind it is functional.
For test [7], the target named is Lysine-specific demethylase 4C (Homo sapiens, UniProt Q9H3R0). As to the kind of experiment: GASC-1 (JMJD2C) histone demethylase inhibitors, dose response, biochemical, DELFIA europium, cherry-picked samples (AID 488835). In kind it is functional.
The target in test [8] is UDP-galactopyranose mutase (Mycobacterium tuberculosis, UniProt P9WIQ1). As to the kind of experiment: Inhibitors of Mycobacterium tuberculosis UDP-galactopyranose mutase (UGM) enzyme Measured in Biochemical System Using Plate Reader - 2105-02_Inhibitor_Dose_CherryPick_Activity. [Related pubchem assays (depositor defined):AID504439].
Test [9] concerns the target T3, Cannabinoid receptor 1 (Homo sapiens, UniProt P21554). Put plainly: SAR analysis of agonists of the Cannabinoid Receptor 1 using an Image-Based Assay - Set 2. [Related pubchem assays (depositor defined):AID2013, AID2026]. The test is classed as functional.
Test [10] deals with T3, Cannabinoid receptor 1. As to the kind of experiment: SAR analysis of antagonists of the Cannabinoid Receptor 1 using an Image-Based Assay - Set 2. [Related pubchem assays (depositor defined):AID2013, AID2026]. The test is classed as functional.
In test [11] the target is T4, G-protein coupled receptor 35 (Homo sapiens, UniProt Q9HC97). As to the kind of experiment: SAR analysis of Agonists of the GPR35 Receptor using an Image-Based Assay - Set 2. [Related pubchem assays (depositor defined):AID2013, AID2026]. In kind it is functional.
Test [12] concerns the target T5, G-protein coupled receptor 55 (Homo sapiens, UniProt Q9Y2T6). Put plainly: GPR55 antagonists blocking LPI-driven arrestin recruitment, primary screen, imaging, U2OS, beta-arrestin-GFP, LPI agonist (AID 2013).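 Further: antagonist potency measured as reduced agonist-driven arrestin aggregation.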 In kind it is functional.
Test [13] concerns the target T6, Cannabinoid receptor 2 (Homo sapiens, UniProt P34972). Put plainly: SAR analysis of antagonists of the Cannabinoid Receptor 2 using an Image-Based Assay. [Related pubchem assays (depositor defined):AID2013, AID2026]. The test is classed as functional.
The target in test [14] is T6, Cannabinoid receptor 2. As to the kind of experiment: SAR analysis of agonists of the Cannabinoid Receptor 2 using an Image-Based Assay. [Related pubchem assays (depositor defined):AID2013, AID2026]. The test is classed as functional.
Test [15] addresses T4, G-protein coupled receptor 35. Put plainly: SAR analysis of Antagonists of the GPR35 Receptor using an Image-Based Assay - Set 3. [Related pubchem assays (depositor defined):AID2013, AID2026]. In kind it is functional.
Test [16] is described as follows: Luminescence Cell-Based Dose Retest to Confirm Inhibitors of Cancer Stem Cells. [Related pubchem assays (depositor defined):AID2717, AID2721]. The test is classed as functional. Conditions: Homo sapiens.
In test [17] the target is T7, Tyrosine-protein phosphatase non-receptor type 22 (Homo sapiens, UniProt Q9Y2R2).
T7 sequence (Q9Y2R2 whole entry): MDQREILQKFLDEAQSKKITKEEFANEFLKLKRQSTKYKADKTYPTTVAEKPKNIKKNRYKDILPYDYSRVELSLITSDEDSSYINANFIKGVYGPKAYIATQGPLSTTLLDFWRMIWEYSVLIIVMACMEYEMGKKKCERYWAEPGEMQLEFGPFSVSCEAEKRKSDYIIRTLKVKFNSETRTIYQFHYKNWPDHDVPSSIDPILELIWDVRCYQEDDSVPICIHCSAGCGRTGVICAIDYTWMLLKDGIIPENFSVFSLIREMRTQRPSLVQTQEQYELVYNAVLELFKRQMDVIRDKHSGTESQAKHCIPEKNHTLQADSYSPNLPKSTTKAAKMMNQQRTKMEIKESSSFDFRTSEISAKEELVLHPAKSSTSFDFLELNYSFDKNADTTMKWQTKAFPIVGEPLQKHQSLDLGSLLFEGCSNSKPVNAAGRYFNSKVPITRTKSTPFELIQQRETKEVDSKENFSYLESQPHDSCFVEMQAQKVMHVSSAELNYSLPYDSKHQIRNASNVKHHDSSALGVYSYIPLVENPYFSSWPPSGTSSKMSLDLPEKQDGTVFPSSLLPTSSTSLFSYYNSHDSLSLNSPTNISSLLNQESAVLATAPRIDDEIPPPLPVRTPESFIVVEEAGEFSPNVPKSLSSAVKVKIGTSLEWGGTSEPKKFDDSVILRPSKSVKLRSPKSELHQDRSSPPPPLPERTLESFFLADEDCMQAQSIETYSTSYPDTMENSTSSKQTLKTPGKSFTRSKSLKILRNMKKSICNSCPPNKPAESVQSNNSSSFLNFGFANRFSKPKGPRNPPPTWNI
In kind it is functional.

For test [18], the target named is T8, Tyrosine-protein phosphatase non-receptor type 7 (Homo sapiens, UniProt P35236).
T8 sequence (P35236 whole entry): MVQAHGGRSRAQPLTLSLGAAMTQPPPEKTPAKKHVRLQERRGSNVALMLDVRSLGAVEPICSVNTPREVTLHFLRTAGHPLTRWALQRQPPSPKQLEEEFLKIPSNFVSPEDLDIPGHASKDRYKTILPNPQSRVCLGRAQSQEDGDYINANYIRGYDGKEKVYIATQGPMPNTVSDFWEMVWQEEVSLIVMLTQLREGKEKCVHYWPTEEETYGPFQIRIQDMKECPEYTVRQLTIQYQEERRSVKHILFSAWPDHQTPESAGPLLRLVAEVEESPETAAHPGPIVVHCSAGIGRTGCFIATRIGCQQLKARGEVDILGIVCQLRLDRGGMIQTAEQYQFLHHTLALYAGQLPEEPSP
The test is classed as functional.

Test [19] deals with T7, Tyrosine-protein phosphatase non-receptor type 22. The test is classed as functional. The source holds these as a separate data set.
For test [20], the target named is Tyrosine-protein phosphatase non-receptor type 12 (Homo sapiens, UniProt Q05209). Put plainly: SAR Selectivity Analysis of small molecule inhibitors of PEST using pCAP in a fluorescence assay. [Related pubchem assays (depositor defined):AID1779, AID1784, AID2135]. The test is classed as functional.
Test [21] addresses T7, Tyrosine-protein phosphatase non-receptor type 22. Put plainly: LYP (PTPN22) phosphatase inhibitor potency, SAR follow-up, biochemical, pCAP fluorogenic substrate, fluorescence, set 3 (AID 449727). In kind it is functional.
Test [22] concerns the target T4, G-protein coupled receptor 35. As to the kind of experiment: GPR35 antagonists blocking zaprinast-driven arrestin recruitment, primary screen, imaging, U2OS, beta-arrestin-GFP, zaprinast agonist (AID 2058).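 Further: antagonist potency meaning inhibition of agonist-induced arrestin redistribution.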 The test is classed as functional.
Test [23] has as its target T5, G-protein coupled receptor 55. As to the kind of experiment: GPR55 antagonists, SAR follow-up, counter-screen for GPR35 antagonist project, imaging, image-based (AID 2397). In kind it is functional.
Test [24] addresses T4, G-protein coupled receptor 35. As to the kind of experiment: SAR Analysis for the identification of Selective Antagonists of ERK1/2 Activity in GPR35-Overexpressing U2OS Cells. [Related pubchem assays: 2079, 2058 ]. The test is classed as functional, cell-based.
Test [25] concerns the target 26S proteasome non-ATPase regulatory subunit 14 (Homo sapiens, UniProt O00487). As to the kind of experiment: inhibition of proteasome subunit RPN11 – biochemical, fluorescence polarization, uHTS hits, confirmation (AID 602368). In kind it is functional.
Test [26] has as its target Prothrombin (Bos taurus, UniProt P00735). Put plainly: thrombin inhibition, dose response, biochemical, fluorescence polarization, uHTS hits (AID 602369). The test is classed as functional.
The target of test [27] is T7, Tyrosine-protein phosphatase non-receptor type 22. As to the kind of experiment: SAR LYP1 Fluorescent Assay using OMFP substrate for In Vitro dose response studies - Set 3. [Related pubchem assays (depositor defined):AID1779, AID1784, AID2140, AID2686]. The test is classed as functional.
In test [28] the target is 72 kDa type IV collagenase (Homo sapiens, UniProt P08253). As to the kind of experiment: Dose Response validation of uHTS RPN11 inhibitor hits using a MMP-2 Fluorescence assay. In kind it is functional.
In test [29] the target is T8, Tyrosine-protein phosphatase non-receptor type 7. As to the kind of experiment: HePTP (PTPN7) phosphatase inhibitor potency, SAR follow-up, biochemical, set 2 (AID 449736). The test is classed as functional.
A short description of test [30]: cytotoxicity in HMLE control line with eGFP shRNA, dose response, counter-screen for HMLE_sh_ECad selective toxicity project, cell-based, HMLE_sh_eGFP, luminescence (AID 463074).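 Further: HMLE human mammary epithelial cells expressing control shRNA against eGFP.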 In kind it is functional, Homo sapiens.

Calls of active or inactive are those of the source. A value given as a limit tells only on which side of the number the result lay.

T4 sequence (Q9HC97 whole entry): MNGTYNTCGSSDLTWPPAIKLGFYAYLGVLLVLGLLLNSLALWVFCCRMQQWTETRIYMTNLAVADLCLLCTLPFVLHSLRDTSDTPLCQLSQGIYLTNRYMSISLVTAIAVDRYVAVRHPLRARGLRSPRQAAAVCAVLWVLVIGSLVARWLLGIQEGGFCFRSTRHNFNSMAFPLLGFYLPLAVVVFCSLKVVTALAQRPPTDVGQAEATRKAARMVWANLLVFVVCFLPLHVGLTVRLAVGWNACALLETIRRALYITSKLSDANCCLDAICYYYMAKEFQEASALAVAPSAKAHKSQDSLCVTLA
T3 sequence (P21554 whole entry): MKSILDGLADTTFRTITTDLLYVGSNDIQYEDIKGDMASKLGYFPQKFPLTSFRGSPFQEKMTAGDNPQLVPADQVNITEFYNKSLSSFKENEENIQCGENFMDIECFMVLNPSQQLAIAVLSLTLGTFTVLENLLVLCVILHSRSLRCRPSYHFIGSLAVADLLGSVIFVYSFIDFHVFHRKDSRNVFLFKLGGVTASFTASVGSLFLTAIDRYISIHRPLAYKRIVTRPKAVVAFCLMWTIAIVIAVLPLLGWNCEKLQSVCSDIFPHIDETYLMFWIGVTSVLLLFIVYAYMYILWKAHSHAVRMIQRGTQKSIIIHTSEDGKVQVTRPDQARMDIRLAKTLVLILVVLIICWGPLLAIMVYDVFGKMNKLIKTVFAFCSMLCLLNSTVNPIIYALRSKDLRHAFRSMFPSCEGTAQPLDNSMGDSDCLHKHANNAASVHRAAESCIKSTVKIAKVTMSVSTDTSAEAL
T5 sequence (Q9Y2T6 whole entry): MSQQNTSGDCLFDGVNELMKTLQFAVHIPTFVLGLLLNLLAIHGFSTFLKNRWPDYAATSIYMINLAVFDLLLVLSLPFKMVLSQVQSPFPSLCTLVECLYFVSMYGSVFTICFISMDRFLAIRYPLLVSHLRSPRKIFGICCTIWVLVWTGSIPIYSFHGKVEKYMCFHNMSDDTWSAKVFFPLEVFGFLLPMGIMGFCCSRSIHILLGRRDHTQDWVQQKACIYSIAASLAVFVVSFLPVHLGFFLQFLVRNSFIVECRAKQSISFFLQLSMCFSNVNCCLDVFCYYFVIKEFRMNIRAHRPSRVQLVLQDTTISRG
T6 sequence (P34972 whole entry): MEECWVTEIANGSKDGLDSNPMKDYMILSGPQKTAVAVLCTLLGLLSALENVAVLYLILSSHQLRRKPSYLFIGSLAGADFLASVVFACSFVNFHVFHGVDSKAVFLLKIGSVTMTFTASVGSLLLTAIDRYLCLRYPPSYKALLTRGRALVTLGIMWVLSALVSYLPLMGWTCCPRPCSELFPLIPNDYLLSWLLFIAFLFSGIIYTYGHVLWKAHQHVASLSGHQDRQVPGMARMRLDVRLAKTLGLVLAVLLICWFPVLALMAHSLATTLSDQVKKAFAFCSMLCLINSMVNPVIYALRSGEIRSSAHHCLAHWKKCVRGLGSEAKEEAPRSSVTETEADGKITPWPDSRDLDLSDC
Sequence of UDP-galactopyranose mutase (P9WIQ1 whole entry): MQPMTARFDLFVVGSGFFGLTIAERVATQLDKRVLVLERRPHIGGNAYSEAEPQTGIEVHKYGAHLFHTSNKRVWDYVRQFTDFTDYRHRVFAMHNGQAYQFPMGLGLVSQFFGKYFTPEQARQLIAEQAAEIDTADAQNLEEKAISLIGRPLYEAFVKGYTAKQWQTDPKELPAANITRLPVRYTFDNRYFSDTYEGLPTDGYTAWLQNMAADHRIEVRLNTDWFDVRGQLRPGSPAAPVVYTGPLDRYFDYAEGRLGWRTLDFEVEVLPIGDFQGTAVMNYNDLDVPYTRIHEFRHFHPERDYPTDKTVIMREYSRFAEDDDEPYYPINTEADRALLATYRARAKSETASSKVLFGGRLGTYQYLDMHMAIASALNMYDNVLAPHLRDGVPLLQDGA
Sequence of Intestinal-type alkaline phosphatase (Homo sapiens, UniProt P09923) (P09923 whole entry): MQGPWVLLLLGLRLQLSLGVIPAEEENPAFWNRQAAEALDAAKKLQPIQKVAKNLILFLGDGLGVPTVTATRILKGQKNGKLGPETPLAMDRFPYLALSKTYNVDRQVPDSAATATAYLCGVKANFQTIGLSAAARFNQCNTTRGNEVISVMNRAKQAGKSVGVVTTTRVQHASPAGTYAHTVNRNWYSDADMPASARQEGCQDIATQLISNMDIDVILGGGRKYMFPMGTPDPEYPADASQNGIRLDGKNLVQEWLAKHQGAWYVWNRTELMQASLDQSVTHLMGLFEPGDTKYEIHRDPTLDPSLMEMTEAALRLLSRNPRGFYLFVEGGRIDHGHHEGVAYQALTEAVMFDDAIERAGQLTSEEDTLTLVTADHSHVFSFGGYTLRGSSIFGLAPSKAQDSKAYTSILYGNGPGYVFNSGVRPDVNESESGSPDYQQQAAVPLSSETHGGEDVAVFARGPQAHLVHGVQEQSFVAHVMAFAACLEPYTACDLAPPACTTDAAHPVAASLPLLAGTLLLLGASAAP
Sequence of Lysine-specific demethylase 4C (Q9H3R0 whole entry): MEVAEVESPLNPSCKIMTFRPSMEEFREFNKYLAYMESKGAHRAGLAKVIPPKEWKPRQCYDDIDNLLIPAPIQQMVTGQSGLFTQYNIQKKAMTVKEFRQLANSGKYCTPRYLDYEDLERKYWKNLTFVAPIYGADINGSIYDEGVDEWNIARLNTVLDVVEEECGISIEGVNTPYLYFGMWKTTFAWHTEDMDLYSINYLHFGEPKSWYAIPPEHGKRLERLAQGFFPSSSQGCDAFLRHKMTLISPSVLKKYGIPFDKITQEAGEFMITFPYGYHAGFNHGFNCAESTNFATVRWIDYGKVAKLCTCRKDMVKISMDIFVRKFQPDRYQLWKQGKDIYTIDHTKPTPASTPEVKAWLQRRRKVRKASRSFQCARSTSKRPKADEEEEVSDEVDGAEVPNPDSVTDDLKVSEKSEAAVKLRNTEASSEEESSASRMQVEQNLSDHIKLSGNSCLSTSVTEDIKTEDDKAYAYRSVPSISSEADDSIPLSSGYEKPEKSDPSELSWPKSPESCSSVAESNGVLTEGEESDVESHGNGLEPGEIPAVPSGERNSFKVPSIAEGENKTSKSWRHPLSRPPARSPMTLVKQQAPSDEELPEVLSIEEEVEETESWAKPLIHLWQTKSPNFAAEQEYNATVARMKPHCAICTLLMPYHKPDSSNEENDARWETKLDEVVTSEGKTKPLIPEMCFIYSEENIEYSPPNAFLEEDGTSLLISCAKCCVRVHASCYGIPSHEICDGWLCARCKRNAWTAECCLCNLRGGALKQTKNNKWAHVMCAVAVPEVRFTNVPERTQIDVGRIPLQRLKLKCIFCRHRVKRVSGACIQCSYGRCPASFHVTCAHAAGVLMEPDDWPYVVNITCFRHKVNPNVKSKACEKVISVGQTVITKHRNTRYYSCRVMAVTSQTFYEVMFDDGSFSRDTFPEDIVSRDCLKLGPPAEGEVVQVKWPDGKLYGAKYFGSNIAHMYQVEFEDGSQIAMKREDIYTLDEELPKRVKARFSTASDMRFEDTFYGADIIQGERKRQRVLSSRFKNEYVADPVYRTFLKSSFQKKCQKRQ
Sequence of 26S proteasome non-ATPase regulatory subunit 14 (O00487 whole entry): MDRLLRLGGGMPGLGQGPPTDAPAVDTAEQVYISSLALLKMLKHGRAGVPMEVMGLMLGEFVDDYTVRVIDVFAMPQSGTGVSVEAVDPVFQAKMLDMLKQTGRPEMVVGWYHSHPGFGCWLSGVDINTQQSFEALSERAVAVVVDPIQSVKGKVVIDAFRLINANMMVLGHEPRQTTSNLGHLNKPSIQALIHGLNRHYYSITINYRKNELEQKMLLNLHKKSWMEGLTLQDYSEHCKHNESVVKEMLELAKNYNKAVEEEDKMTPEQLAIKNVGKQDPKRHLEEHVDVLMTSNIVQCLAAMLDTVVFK
Sequence of Albumin (P02769 whole entry): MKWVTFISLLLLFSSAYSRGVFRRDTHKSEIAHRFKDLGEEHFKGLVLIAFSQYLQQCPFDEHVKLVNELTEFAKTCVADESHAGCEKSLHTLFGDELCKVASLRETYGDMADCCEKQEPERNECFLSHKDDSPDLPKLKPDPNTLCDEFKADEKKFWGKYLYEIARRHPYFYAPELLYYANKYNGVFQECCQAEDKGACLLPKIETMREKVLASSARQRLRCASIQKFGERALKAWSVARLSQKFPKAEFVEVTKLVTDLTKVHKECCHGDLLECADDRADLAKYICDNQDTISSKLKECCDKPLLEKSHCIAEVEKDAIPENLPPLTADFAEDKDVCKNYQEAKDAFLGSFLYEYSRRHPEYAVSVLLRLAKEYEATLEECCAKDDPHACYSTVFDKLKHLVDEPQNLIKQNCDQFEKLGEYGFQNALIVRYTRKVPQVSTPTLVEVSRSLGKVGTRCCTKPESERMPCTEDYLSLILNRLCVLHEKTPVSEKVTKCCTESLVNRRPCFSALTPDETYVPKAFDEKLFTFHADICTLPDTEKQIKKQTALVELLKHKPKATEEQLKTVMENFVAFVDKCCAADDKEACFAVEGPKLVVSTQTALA
Sequence of Intestinal-type alkaline phosphatase (Mus musculus, UniProt P24822) (P24822 whole entry): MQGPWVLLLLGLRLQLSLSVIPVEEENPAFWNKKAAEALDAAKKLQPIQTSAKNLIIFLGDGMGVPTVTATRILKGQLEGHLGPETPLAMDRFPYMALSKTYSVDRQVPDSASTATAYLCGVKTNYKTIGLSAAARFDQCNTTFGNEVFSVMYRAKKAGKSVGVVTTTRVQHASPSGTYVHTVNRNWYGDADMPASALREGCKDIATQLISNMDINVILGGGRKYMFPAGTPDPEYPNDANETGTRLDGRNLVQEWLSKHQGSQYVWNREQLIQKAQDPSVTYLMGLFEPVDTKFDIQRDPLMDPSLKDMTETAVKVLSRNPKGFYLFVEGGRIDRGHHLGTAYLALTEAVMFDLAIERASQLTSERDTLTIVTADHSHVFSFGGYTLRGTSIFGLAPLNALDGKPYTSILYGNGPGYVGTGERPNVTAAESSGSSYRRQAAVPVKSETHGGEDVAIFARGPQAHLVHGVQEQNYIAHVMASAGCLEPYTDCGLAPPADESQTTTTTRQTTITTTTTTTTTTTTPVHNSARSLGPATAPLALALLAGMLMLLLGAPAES

Regarding `COc1cc([N+](=O)[O-])ccc1/N=c1\ssnc1Cl`, the IC50 in test [1] is 3.25 µM (active); in [2], > 100 µM (inactive).

In the case of `O=C(NNC(=S)NC(=O)c1cccs1)c1ccc(O)cc1`, the IC50 is > 100 µM (inactive) in test [3], 11.9 µM (active) in test [4] and > 94 µM (inactive) in test [6]. Further, the EC50 in test [5] is > 100 µM (inactive).

For `c1cc2c(cc1-c1csc(NNC3=NCCCCC3)n1)OCCO2`, the AC50 in test [7] was 17 µM (active).

In the case of `O=C(NCc1ccc(F)cc1)c1cccc2c1C(=O)c1ccc(N3CCC(Cc4ccccc4)CC3)cc1S2(=O)=O`, the AC50 in [8] was 5.84 µM (active).

For `Cc1cc(OCC(=O)Nc2ccc(S(=O)(=O)NC3=NCCCCC3)cc2)c(C(C)C)cc1Cl`, the EC50 in test [9], in test [11] and in [14] was > 32 µM (inactive) throughout. Moreover, the IC50 in test [10] is 3.16 µM (active); in test [12] it was 1.08 µM (active); in test [13] it was > 32 µM (inactive); in [15], > 32 µM (inactive). Moreover, the AC50 in [16] is 6.13 µM (active).

On to `CC(C)n1c(C(=O)OCC(=O)NCc2ccc3c(c2)OCO3)cc2occc21`, for which the IC50 in test [17], in test [18] and in [19] was > 79.4 µM (inactive) each time.

Turning to `O=C(CCCN1C(=O)/C(=C/c2ccc3c(c2)OCO3)SC1=S)Nc1ccc(C(=O)O)cc1`, the IC50 in test [20] is 12.1 µM (active); in test [21], 47 µM (active); in test [22], 563 nM (active); in test [23], 20 µM (inactive); in test [24], 4.07 µM (active); in test [25] it was 40.7 µM (active). Moreover, the IC50 is 38.9 µM (active) in test [26], 91.4 µM (active) in test [27], 43 µM (active) in test [28] and 1.99 µM (active) in [29].

`CN1CCN(/N=C/c2ccc(OCc3ccccc3)cc2)CC1`: the values for the AC50 in [30] and in [16] were 56 µM (active) and 5.25 µM (active), respectively.

These data come from ChEMBL document CHEMBL1201862, “PubChem BioAssay data set” (2004).
